Measurements: ChEMBL document CHEMBL1201862, “PubChem BioAssay data set” (2004)
Calls of active or inactive are those of the source.

Tests used:
Cytochrome P450 2C9 = Cytochrome P450 2C9 (Homo sapiens, UniProt P11712); conditions: Potency
[1] = biological target: Peroxisome proliferator-activated receptor gamma/Nuclear receptor coactivator 2 (Homo sapiens, UniProt P37231); format: functional;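 note: agonist potency for raising coactivator recruitment to the receptor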
[2] = biological target: Peroxisome proliferator-activated receptor gamma/Nuclear receptor coactivator 1 (Homo sapiens, UniProt P37231); format: functional;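 note: agonist potency as compounds enhance coactivator SRC-1 recruitment to PPARgamma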
[3] = biological target: Peroxisome proliferator-activated receptor gamma/Nuclear receptor coactivator 3 (Homo sapiens, UniProt P37231); format: functional;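 note: agonist potency for raising coactivator recruitment to the receptor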
Cytochrome P450 2D6 = Cytochrome P450 2D6 (Homo sapiens, UniProt P10635);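 note: CYP2D6 member of a cytochrome P450 panel assay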
[4] = human group III sPLA2 inhibitors, dose response, biochemical, QFRET, IC50 (AID 743457);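 note: green fluorescence rise as the enzyme cleaves BODIPY PC-A2 in liposomes; potency for inhibition of the enzyme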
[5] = HepG2 cell cytotoxicity, dose response, cytotoxicity control, cherry-picked samples (AID 1159577); format: functional, cell-based
[6] = P. falciparum Dd2 growth inhibitors, dose response, SYBR Green, cherry-picked samples (AID 1159567); format: functional, cell-based
[7] = microbe, parasite or virus in culture; format: functional; conditions: Mycobacterium tuberculosis
[8] = Luminescence Cell-Based Dose Retest to Confirm Inhibitors of Cancer Stem Cells. [Related pubchem assays (depositor defined):AID2717, AID2721]; format: functional; conditions: Homo sapiens
[9] = ZM109 Env clade C HIV-1 fusion inhibitors, dose response, HeLa effector, CEM target cells, luciferase, cherry-pick (AID 652058); format: functional, cell-based
[10] = inhibitors of clade B AD8 Env fusion, dose response, cell-based, cherry-pick (AID 652062); format: functional;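 note: luciferase signal from cell-cell fusion driven by HIV-1 clade B AD8 Env; potency is for inhibitors of fusion seen as a drop in luminescence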
[11] = CEM21 lymphoblast cell cytotoxicity, dose response, cytotoxicity control for viral fusion inhibitor project, CellTiter-Glo luminescence, cherry-picked (AID 652042); format: functional, cell-based;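 note: potency for signal decrease meaning cytotoxicity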
[12] = inhibitors of HIV Env-driven cell fusion, dose response, cherry-pick (AID 652057); format: functional, cell-based
INS1 = assay: beta cell apoptosis inhibitors, cytokine rescue, dose response, luminescence, retest (AID 449756); format: functional, cell-based; conditions: Rattus norvegicus;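 note: cell death triggered by IL-1 beta plus TNF-alpha plus IFN-gamma mixture; protective hits raise ATP signal compared with cytokine alone wells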
[13] = HepG2 cell cytotoxicity, dose response, cytotoxicity control, ATP luminescence, cherry-pick, set 6 (AID 1053125); format: functional, cell-based
Cytochrome P450 3A4 = Cytochrome P450 3A4 (Homo sapiens, UniProt P08684); conditions: Potency;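 note: confirmatory qHTS run detecting inhibitors and substrates of CYP3A4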
[14] = Luminescence-based cell-based high throughput dose response assay to identify activators of the DAF-12 from the parasite S. stercoralis (ssDAF-12).; format: functional
[15] = biological target: T1, Oxysterols receptor LXR-beta (Homo sapiens, UniProt P55055); assay: LXR agonists, Gal4 luciferase reporter, dose response, counter-screen for ssDAF-12 agonist project, cell-based, luminescence, HEK293, S. stercoralis campaign (AID 720737); format: functional; conditions: read-out: IC50 (the source's name)
T1 sequence (P55055 whole entry): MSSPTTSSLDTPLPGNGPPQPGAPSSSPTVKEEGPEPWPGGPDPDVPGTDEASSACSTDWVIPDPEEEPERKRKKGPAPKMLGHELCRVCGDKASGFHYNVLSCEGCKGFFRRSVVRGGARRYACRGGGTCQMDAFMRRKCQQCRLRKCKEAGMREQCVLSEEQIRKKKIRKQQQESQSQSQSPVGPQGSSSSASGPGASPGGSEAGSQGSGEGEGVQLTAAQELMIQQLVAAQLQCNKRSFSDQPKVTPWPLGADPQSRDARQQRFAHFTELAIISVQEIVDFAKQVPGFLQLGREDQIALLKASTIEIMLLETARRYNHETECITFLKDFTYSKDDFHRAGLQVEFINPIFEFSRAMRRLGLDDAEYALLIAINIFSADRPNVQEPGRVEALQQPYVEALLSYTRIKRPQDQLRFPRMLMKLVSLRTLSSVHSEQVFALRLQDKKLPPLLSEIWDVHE

[16] = biological target: T1, Oxysterols receptor LXR-beta; format: functional, cell-based
Estrogen receptor beta = Estrogen receptor beta (Homo sapiens, UniProt Q92731);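 note: recombinant ER-beta bound to coactivator SRC1 peptide in presence of estradiol agonist; inhibitors block coactivator peptide binding and lower the FRET signal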
Estrogen receptor = biological target: T2, Estrogen receptor (Homo sapiens, UniProt P03372);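 note: potency for inhibiting coactivator peptide recruitment to the receptor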
T2 sequence (P03372 whole entry): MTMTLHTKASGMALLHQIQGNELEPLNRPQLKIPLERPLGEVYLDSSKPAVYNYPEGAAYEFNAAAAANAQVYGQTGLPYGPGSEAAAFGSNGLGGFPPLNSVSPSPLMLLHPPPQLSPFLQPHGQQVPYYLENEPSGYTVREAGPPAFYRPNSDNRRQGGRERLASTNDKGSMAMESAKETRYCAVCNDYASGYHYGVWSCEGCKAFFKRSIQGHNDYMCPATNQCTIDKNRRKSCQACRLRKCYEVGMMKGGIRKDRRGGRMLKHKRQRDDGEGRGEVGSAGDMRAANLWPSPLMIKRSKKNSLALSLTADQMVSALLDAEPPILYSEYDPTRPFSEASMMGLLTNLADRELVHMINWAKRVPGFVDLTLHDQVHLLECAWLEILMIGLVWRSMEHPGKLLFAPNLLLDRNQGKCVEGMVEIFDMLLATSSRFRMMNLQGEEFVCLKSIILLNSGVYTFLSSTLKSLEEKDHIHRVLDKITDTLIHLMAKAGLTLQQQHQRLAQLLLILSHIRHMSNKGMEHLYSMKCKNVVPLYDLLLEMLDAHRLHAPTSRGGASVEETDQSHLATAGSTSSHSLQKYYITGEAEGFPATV

Cytochrome P450 2C9, sequence (P11712 whole entry): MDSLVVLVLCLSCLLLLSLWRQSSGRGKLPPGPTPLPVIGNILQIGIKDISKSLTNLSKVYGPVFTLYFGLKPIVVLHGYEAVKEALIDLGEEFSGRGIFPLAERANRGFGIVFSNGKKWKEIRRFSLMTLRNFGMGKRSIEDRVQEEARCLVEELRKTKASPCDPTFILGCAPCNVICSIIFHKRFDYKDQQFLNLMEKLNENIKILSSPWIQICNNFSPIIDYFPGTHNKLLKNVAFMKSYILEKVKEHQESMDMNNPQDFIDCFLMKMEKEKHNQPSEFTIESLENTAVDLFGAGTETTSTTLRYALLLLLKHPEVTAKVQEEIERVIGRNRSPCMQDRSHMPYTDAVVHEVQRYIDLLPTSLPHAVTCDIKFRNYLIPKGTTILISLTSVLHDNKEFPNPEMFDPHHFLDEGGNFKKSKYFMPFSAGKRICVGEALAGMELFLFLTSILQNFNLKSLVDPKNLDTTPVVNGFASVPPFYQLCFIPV
Peroxisome proliferator-activated receptor gamma/Nuclear receptor coactivator 2, sequence (P37231 whole entry): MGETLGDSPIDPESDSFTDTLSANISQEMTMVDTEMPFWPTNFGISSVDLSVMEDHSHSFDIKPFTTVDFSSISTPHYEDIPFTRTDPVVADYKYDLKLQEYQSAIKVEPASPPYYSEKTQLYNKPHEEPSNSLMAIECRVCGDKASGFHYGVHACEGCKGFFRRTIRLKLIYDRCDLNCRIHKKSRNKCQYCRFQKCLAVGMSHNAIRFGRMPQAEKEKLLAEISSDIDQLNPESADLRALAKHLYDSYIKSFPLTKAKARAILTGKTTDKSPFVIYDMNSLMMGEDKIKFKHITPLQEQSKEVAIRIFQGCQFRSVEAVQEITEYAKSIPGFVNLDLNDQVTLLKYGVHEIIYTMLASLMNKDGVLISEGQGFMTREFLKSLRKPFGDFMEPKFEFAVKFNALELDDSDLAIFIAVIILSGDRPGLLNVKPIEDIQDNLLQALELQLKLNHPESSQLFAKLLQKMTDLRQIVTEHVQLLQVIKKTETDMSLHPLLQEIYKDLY
Peroxisome proliferator-activated receptor gamma/Nuclear receptor coactivator 2, sequence (Q15596 whole entry, further chain): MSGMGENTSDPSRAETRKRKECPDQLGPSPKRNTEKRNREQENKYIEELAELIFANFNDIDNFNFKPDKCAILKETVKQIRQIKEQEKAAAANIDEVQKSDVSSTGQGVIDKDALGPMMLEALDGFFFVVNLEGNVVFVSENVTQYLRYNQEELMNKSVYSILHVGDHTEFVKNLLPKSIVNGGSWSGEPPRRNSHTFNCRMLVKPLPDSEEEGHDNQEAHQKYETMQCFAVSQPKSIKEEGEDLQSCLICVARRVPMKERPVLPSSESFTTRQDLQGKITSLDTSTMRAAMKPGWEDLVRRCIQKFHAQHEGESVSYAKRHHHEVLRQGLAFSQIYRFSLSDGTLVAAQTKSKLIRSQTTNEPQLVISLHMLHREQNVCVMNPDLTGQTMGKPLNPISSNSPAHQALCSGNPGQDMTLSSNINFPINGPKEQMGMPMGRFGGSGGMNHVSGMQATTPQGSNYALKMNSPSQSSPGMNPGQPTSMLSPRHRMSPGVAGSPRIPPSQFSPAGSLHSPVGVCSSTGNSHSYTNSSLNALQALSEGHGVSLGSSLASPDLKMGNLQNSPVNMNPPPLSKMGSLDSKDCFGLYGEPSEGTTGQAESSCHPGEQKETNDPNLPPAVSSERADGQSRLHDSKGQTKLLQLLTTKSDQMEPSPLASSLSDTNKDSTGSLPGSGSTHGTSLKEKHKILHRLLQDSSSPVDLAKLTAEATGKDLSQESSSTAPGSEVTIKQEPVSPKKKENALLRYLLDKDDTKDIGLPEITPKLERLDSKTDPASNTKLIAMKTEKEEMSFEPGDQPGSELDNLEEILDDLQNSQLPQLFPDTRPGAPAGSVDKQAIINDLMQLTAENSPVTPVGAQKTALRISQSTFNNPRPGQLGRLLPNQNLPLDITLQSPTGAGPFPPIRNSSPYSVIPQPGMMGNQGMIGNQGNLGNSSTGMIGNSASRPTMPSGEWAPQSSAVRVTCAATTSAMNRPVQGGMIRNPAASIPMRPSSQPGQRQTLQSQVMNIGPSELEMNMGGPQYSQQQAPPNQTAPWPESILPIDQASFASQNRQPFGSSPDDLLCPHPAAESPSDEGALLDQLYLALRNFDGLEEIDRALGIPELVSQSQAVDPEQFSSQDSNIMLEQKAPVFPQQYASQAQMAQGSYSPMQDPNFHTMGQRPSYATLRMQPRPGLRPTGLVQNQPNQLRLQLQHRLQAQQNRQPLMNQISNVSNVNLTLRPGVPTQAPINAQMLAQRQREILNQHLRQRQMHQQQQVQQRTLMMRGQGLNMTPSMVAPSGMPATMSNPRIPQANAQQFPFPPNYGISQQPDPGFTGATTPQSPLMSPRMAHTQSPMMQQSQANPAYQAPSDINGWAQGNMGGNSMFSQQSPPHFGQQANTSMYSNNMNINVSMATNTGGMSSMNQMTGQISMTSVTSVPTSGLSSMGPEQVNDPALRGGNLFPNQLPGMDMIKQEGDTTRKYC
Peroxisome proliferator-activated receptor gamma/Nuclear receptor coactivator 3, sequence (P37231 whole entry): as the sequence (P37231 whole entry) above
Peroxisome proliferator-activated receptor gamma/Nuclear receptor coactivator 3, sequence (Q9Y6Q9 whole entry, further chain): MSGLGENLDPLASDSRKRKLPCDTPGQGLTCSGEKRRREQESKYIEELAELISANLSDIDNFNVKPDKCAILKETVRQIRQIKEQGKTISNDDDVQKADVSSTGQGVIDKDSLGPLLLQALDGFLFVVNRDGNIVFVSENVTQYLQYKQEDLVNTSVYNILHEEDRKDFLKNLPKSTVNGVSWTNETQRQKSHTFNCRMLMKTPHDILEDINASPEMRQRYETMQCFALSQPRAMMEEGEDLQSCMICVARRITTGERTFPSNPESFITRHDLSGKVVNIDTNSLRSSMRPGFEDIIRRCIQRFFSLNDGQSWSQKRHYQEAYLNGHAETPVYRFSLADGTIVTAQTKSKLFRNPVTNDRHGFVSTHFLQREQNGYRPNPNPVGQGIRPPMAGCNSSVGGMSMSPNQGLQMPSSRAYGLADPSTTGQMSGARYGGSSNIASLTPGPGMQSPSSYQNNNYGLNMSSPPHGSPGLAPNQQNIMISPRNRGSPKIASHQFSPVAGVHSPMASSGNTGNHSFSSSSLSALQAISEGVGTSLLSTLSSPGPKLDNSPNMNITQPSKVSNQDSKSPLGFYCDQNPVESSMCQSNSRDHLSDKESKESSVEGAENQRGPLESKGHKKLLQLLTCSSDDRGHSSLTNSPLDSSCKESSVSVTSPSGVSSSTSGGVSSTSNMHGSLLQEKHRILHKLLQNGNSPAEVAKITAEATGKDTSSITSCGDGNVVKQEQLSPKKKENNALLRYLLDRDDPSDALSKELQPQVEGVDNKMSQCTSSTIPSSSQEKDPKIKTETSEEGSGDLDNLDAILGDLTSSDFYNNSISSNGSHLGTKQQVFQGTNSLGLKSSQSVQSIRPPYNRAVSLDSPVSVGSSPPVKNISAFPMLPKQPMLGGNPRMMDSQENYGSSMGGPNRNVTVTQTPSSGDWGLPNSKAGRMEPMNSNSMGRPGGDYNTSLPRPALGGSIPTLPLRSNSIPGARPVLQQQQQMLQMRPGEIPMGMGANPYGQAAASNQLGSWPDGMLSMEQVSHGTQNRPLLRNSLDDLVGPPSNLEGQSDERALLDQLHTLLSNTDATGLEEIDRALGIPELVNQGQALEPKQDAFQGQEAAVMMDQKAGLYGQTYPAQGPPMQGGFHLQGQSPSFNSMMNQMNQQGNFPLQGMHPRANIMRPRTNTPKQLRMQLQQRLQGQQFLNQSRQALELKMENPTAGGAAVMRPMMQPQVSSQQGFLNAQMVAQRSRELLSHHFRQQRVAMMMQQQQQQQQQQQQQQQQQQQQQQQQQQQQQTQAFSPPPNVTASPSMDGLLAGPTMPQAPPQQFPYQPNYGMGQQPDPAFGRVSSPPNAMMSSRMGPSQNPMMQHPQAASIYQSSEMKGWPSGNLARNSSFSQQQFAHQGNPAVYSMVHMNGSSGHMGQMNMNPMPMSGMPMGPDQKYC
Cytochrome P450 3A4, sequence (P08684 whole entry): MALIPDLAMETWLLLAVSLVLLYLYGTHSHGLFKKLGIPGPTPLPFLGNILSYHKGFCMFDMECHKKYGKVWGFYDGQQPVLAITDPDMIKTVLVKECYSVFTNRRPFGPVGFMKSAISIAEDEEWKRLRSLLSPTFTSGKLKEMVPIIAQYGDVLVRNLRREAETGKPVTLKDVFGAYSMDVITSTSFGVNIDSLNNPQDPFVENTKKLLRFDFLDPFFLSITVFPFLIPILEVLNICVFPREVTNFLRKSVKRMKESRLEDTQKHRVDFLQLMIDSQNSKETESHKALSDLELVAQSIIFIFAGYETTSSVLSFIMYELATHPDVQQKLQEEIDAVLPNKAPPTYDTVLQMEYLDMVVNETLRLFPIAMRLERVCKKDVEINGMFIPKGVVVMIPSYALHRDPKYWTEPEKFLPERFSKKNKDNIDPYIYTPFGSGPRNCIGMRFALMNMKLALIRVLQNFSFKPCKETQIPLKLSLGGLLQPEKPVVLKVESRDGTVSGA

For `CC(C)(C)c1cc(O)ccc1O` [E319], the AC50 (Cytochrome P450 2C9) was 7.94 µM (inconclusive).

For `O=C(CSc1nnc2c3ccccc3c3ccccc3c2n1)Nc1ccccc1`, the EC50 [1] was 28.6 µM (not active), the EC50 [2] was 31.7 µM (not active) and the EC50 [3] was 39.1 µM (not active). For the same compound, the AC50 (Cytochrome P450 2D6) was 7.94 µM (inconclusive).

In the case of `Cc1cccc(NC(S)=NNC(=O)c2nn(C)cc2Cl)c1`, the IC50 [4] is reported as > 122 µM (inactive).

In the case of `COc1ccc(S(=O)(=O)N2CC[C@@H]3[C@@H](CO)Nc4ccc(-c5ccc(C#N)cc5)cc4[C@@H]32)cc1`, the AC50 [5] is reported as 3.16 µM (active) and the AC50 [6] is reported as 6.28 µM (active).

With `CCOC(=O)[C@@H]1[C@H]2COc3cc(OC)ccc3[C@H]2N2C(=O)N(c3ccc(C(F)(F)F)cc3)C(=O)[C@]12C` the CC50 [7] was 13.2 µM (active), the AC50 [8] was 3.05 µM (active) and the AC50 [9] was 38.8 µM (active). For the same compound, the AC50 [10] was 25 µM (active), the AC50 [11] was 27.7 µM (active) and the AC50 [12] was 27.3 µM (active). The AC50 (INS1) was 7.32 µM (active).

For `CCOc1ccc(-n2c(SCC(=O)Nc3nccs3)nnc2-c2ccoc2C)cc1`, the AC50 [13] was > 52 µM (inactive).

With `CCCCCCCC1=CC2=CC(=O)C(C)(OC(C)=O)C(=O)C2=CN1CCc1ccccc1` (stereo not drawn) the AC50 (Cytochrome P450 2C9) was 6.31 µM (inconclusive) and the AC50 (Cytochrome P450 3A4) was 3.98 µM (inconclusive).

In the case of `Cc1c(C(=O)Nc2nccs2)oc2ccccc12`, the IC50 [14] is reported as > 67.6 µM (inactive), the EC50 [15] is reported as > 67.6 µM (inactive) and the EC50 [16] is reported as > 67.6 µM (inactive).

For `O=C(c1cc(-c2ccco2)on1)N1CCCc2ccccc21`, the IC50 (Estrogen receptor beta) was > 50 µM (not active) and the IC50 (Estrogen receptor) was > 50 µM (not active).
